From BindingDB's records for doi:10.1016/j.bmcl.2009.04.116 (Banyu Pharmaceutical, 2009)

Biological target: Nociceptin receptor (Homo sapiens, UniProt P41146)
Assay: In Vitro Binding Assay (IC50) and In Vitro Agonism/Antagonism Measurements (EC50/IC50)
Conditions: not given
Experimental: IC50 values are calculated using GraphPad Prism. Agonist/antagonist activities were measured by the [35S]GTPgamma-S binding to proteins using membrane fractions of CHO cells expressing ORL1. Nonspecific binding is determined in the presence of 10 uM unlabeled GTPgammaS. Membrane-bound radioactivity is measured using a TopCount-HTS (PerkinElmer). Specific binding of [35S]GTPgammaS is determined as a difference between the control (in the presence of appropriate concentration of nociceptin), and the baseline (in the presence of DMSO instead of compound). EC50/IC50 values are calculated from % of specific binding in the presence of various concentration of the compound using GraphPad Prism 3.03.

Nociceptin receptor, sequence (P41146 whole entry): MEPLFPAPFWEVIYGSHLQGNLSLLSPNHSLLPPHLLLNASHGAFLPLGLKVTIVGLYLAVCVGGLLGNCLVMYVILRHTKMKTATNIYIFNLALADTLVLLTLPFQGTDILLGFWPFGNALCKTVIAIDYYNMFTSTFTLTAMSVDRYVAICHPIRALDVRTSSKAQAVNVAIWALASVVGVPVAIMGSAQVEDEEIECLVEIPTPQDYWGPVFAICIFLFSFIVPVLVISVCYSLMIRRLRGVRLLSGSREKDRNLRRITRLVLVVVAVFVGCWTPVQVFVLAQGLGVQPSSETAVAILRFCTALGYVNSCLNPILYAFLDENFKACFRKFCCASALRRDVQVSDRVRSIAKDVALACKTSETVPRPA

EC50 [nM] | Compound
7.1 | Cc1ccc(-c2c(C)c(CNC3CCCC3F)nn2-c2ncccc2Cl)cn1 (stereo not drawn) [arylpyrazole, 27]
1 | Cc1ccc(-c2c(C)c(CN[C@H]3CC[C@@H](F)C3)nn2-c2ncccc2Cl)cn1 [arylpyrazole, 28]
4.5 | Cc1ccc(-c2c(C)c(CNC3CCC(F)(F)C3)nn2-c2ncccc2Cl)cn1 (stereo not drawn) [arylpyrazole, 29]
1.2 | Cc1ncc(-c2c(C)c(CNC3CCCC3)nn2-c2ncccc2Cl)cc1F [arylpyrazole, 30]
0.31 | Cc1ncc(-c2c(C)c(CN[C@H]3CC[C@@H](F)C3)nn2-c2ncccc2Cl)cc1F [arylpyrazole, 31]

Same assay, conditions: pH 7.4; 37 °C

EC50 [nM] | Compound
480 | Cc1c(CNC(C)C)nn(-c2ccc(Cl)cc2Cl)c1-c1ccc(Cl)cc1 [arylpyrazole, 1]
12 | Cc1c(CNC2CCCC2)nn(-c2ncccc2Cl)c1-c1ccc(Cl)nc1 [arylpyrazole, 18]
4.7 | Cc1ccc(-c2c(C)c(CNC3CCCC3)nn2-c2ncccc2Cl)cn1 [arylpyrazole, 19]
